Experimental data taken from patent EP4745135A1 (Gluetacs Therapeutics (Shanghai) Co., Ltd., priority 2023, dated 2025).

Assays:
GSPT1 = assay: Western blot, degradation of substrate protein in hPBMCs; format: cell-based, Human
IKZF1 = biological target: T1, IKZF1 (Homo sapiens, UniProt Q13422+Q96SW2); assay: as above; format: cell-based
T1 construct: effects of the compounds of the present disclosure on the expression of target proteins in cells; endogenous in cells; host or cells: human PBMCs (Milecell Biotechnologies)
T1 sequence (Q13422 whole entry): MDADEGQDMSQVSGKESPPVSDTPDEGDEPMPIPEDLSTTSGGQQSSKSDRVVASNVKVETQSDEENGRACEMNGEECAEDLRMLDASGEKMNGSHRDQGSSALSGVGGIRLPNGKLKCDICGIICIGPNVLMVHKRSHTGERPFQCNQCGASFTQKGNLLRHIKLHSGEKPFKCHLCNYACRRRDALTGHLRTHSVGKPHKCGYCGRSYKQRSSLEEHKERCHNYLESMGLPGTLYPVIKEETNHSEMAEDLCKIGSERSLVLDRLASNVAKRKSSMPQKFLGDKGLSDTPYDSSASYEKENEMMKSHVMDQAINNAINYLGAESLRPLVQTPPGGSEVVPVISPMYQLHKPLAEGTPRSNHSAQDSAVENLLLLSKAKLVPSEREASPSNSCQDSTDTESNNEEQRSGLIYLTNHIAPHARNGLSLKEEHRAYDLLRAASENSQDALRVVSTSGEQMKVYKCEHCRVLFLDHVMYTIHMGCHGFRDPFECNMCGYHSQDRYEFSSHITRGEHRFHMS
T1 sequence (Q96SW2 whole entry): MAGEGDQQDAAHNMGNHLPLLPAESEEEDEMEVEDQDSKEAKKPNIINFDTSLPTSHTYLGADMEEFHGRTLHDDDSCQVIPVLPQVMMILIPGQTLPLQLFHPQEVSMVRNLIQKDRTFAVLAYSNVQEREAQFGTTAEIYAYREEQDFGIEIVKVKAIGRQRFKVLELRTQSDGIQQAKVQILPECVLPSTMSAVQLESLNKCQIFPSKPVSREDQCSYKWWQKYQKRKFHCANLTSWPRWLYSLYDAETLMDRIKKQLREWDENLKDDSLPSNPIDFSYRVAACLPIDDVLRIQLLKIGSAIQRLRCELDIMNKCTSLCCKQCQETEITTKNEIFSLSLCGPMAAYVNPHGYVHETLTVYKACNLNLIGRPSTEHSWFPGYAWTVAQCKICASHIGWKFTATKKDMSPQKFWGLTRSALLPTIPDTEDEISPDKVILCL
T1 sequence (Q16531 whole entry partner): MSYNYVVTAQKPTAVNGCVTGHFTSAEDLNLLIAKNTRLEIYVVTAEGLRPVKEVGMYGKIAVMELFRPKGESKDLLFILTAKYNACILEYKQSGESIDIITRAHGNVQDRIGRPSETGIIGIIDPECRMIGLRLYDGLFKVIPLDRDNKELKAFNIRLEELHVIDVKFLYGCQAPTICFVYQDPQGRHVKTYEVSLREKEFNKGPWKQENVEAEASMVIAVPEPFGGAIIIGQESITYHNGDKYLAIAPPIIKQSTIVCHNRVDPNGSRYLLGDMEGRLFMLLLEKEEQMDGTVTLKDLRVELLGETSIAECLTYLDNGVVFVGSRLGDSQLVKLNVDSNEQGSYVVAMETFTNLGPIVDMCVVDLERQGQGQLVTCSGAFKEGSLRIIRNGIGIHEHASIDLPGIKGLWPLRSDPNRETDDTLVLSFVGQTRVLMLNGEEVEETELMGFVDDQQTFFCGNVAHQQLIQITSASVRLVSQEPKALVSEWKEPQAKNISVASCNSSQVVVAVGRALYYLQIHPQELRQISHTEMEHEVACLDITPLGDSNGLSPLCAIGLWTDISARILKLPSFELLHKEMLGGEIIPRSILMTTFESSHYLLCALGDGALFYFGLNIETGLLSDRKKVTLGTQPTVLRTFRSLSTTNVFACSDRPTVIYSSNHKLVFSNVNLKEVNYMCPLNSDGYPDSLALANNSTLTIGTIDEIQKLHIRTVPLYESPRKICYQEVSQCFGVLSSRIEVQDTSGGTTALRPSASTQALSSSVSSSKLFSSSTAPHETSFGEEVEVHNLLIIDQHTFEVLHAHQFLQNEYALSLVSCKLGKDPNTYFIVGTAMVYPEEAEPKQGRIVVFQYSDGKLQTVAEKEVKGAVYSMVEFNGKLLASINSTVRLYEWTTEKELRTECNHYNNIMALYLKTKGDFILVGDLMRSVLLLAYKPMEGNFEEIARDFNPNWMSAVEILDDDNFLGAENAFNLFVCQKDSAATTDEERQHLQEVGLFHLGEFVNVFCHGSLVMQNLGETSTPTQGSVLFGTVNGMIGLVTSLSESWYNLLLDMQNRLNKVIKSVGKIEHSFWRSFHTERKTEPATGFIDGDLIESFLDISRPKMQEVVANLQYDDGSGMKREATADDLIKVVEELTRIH

IKZF3 = biological target: T2, IKZF3 (Homo sapiens, UniProt Q96SW2+Q9UKT9); assay: as above; format: cell-based
T2 construct: effects of the compounds of the present disclosure on the expression of target proteins in cells; endogenous in cells; host or cells: human PBMCs (Milecell Biotechnologies)
T2 sequence (Q9UKT9 whole entry): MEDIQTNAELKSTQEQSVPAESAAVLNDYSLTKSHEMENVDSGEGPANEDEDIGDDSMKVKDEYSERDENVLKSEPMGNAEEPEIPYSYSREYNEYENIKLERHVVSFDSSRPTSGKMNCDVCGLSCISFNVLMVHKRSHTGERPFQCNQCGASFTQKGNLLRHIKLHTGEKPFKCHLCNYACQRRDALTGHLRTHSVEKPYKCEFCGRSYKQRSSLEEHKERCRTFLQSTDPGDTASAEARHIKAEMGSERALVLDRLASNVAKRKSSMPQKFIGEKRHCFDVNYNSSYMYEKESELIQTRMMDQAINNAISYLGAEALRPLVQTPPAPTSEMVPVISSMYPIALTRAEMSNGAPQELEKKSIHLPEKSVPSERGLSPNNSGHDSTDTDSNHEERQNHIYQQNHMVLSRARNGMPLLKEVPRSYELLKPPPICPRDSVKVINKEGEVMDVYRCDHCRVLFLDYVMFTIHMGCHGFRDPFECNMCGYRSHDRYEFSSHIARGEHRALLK
T2 sequence (Q96SW2 whole entry): as the sequence (Q96SW2 whole entry) above
T2 sequence (Q16531 whole entry partner): as the sequence (Q16531 whole entry partner) above

IKZF2 = biological target: T3, IKZF2 (Homo sapiens, UniProt Q96SW2+Q9UKS7); assay: as above; format: cell-based
T3 construct: effects of the compounds of the present disclosure on the expression of target proteins in cells; endogenous in cells; host or cells: human PBMCs (Milecell Biotechnologies)
T3 sequence (Q9UKS7 whole entry): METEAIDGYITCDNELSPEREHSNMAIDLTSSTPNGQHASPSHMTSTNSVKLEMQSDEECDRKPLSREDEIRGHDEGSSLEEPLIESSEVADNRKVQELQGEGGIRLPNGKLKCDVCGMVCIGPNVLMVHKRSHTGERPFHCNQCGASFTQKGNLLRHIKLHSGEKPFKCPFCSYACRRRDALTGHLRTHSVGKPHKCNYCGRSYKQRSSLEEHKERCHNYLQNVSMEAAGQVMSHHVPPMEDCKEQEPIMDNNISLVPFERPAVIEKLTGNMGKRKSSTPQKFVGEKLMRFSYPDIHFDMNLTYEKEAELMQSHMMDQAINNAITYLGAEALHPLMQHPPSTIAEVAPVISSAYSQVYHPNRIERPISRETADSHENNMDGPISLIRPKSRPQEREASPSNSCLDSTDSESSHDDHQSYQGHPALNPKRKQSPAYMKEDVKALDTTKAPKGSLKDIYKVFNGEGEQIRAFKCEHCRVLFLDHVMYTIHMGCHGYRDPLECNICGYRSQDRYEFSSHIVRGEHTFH
T3 sequence (Q96SW2 whole entry): as the sequence (Q96SW2 whole entry) above
T3 sequence (Q16531 whole entry partner): as the sequence (Q16531 whole entry partner) above

CK1α = biological target: T4, CK1α (Homo sapiens, UniProt P48729+Q96SW2); assay: as above; format: cell-based
T4 construct: effects of the compounds of the present disclosure on the expression of target proteins in cells; endogenous in cells; host or cells: human PBMCs (Milecell Biotechnologies)
T4 sequence (P48729 whole entry): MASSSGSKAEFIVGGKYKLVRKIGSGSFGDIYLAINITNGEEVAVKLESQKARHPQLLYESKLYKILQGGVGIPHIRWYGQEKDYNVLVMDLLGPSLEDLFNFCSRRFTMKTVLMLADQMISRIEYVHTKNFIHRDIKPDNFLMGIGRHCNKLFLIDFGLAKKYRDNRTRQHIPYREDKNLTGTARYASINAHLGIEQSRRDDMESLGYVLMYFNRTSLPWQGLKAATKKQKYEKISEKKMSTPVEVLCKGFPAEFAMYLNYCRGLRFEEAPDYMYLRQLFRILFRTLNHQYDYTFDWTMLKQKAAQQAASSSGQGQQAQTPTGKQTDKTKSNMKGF
T4 sequence (Q96SW2 whole entry): as the sequence (Q96SW2 whole entry) above
T4 sequence (Q16531 whole entry partner): as the sequence (Q16531 whole entry partner) above

WEE1 = biological target: T5, WEE1 (Homo sapiens, UniProt P30291+Q96SW2); assay: as above; format: cell-based
T5 construct: effects of the compounds of the present disclosure on the expression of target proteins in cells; endogenous in cells; host or cells: human PBMCs (Milecell Biotechnologies)
T5 sequence (P30291 whole entry): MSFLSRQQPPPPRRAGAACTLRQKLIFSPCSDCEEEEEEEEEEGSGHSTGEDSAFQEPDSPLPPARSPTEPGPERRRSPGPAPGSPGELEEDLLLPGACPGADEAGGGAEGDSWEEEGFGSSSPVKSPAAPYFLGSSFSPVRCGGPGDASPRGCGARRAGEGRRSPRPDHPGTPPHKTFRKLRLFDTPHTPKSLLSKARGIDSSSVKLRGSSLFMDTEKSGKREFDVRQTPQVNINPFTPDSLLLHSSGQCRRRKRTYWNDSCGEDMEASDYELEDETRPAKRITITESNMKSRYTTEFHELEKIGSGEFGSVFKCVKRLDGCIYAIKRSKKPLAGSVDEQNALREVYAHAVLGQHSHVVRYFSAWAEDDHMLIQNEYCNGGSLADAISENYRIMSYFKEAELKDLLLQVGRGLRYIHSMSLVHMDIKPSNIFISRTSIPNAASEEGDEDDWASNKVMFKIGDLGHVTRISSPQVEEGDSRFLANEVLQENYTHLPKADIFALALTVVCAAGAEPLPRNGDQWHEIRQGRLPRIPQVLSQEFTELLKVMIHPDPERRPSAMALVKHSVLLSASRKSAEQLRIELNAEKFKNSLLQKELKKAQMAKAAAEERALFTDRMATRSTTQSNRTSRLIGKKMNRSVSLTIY
T5 sequence (Q96SW2 whole entry): as the sequence (Q96SW2 whole entry) above
T5 sequence (Q16531 whole entry partner): as the sequence (Q16531 whole entry partner) above

[1] = biological target: T6, human Cereblon WT GST-tagged protein (Homo sapiens, UniProt Q96SW2); assay: CRBN-binding affinity, HTRF (CEREBLON BINDING kit); details: for inhibition at 0.5 µM: read-out: Inhibition Rate at 0.5 µM (%); for inhibition at 2 µM: read-out: Inhibition Rate at 2 µM (%)
T6 construct: purchased CISBIO 64BDCRBNPEH
T6 sequence (Q96SW2 whole entry): as the sequence (Q96SW2 whole entry) above

[2] = Western blot, 24 hours of compound treatment, compounds tested at 50 nM and 500 nM (concentration for the table not stated)
[3] = 24 hours treatment, compounds at 50 nM and 500 nM (concentration behind the class not stated)

inhibition at 0.5 µM [1] | inhibition at 2 µM [1] | SMILES | GSPT1 substrate protein remaining % (GSPT1; [2]) | IKZF 1 substrate protein remaining % (IKZF1; [2]) | IKZF3 substrate protein remaining % (IKZF3; [2]) | IKZF2 substrate protein remaining % (IKZF2; [2]) | CK1α substrate protein remaining % (CK1α; [2]) | Wee1 substrate protein remaining % (WEE1; [2]) | GSPT1 substrate protein remaining % (GSPT1; [3]) | IKZF 1 substrate protein remaining % (IKZF1; [3]) | IKZF3 substrate protein remaining % (IKZF3; [3]) | IKZF2 substrate protein remaining % (IKZF2; [3]) | CK1α substrate protein remaining % (CK1α; [3]) | Wee1 substrate protein remaining % (WEE1; [3])
60 to 80% | 60 to 80% | O=C1CCC(N2Cc3c(CN4CCN(c5c(Cl)cncc5Cl)CC4)cccc3C2=S)C(=O)N1 (stereo not drawn) [GT-08805, 3-(4-((4-(3,5-dichloropyridin-4-yl)piperazin-1-yl)methyl)-1-thioxoisoindolin-2-yl)piperidine-2,6-dione] | B (80%< substrate protein remaining %≤ 100%) | B (80%< substrate protein remaining %≤ 100%) | B (80%< substrate protein remaining %≤ 100%) | B (80%< substrate protein remaining %≤ 100%) | B (80%< substrate protein remaining %≤ 100%) | A (0% ≤ substrate protein remaining % ≤ 80%) | – | – | – | – | – | –
60 to 80% | 80 to 100% | O=C1CCC(N2Cc3cc(CN4CCN(c5cc(F)ccc5F)CC4)ccc3C2=S)C(=O)N1 (stereo not drawn) [GT-08625, 3-(5-((4-(2,5-difluorophenyl)piperazin-1-yl)methyl)-1-thioxoisoindolin-2-yl)piperidine-2,6-dione] | A (0% ≤ substrate protein remaining % ≤ 80%) | B (80%< substrate protein remaining %≤ 100%) | B (80%< substrate protein remaining %≤ 100%) | B (80%< substrate protein remaining %≤ 100%) | A (0% ≤ substrate protein remaining % ≤ 80%) | B (80%< substrate protein remaining %≤ 100%) | – | – | – | – | – | –
30 to 40% | 60 to 80% | O=C1CCC(N2Cc3cc(CN4CCC(c5ccc(Br)cc5)CC4)ccc3C2=S)C(=O)N1 (stereo not drawn) [GT-08618, 3-(5-((4-(4-bromophenyl)piperidin-1-yl)methyl)-1-thioxoisoindolin-2-yl)piperidine-2,6-dione] | A (0% ≤ substrate protein remaining % ≤ 80%) | B (80%< substrate protein remaining %≤ 100%) | B (80%< substrate protein remaining %≤ 100%) | B (80%< substrate protein remaining %≤ 100%) | B (80%< substrate protein remaining %≤ 100%) | B (80%< substrate protein remaining %≤ 100%) | – | – | – | – | – | –
80 to 100% | 80 to 100% | O=C1CCC(N2Cc3cc(CN4CCN(c5cccs5)CC4)ccc3C2=S)C(=O)N1 (stereo not drawn) [GT-08168, 3-(5-((4-(thiophen-2-yl)piperazin-1-yl)methyl)-1-thioxoisoindolin-2-yl)piperidine-2,6-dione] | – | – | – | – | – | – | A (0% ≤ substrate protein remaining % ≤ 80%) | B (80%< substrate protein remaining %≤ 100%) | B (80%< substrate protein remaining %≤ 100%) | B (80%< substrate protein remaining %≤ 100%) | B (80%< substrate protein remaining %≤ 100%) | A (0% ≤ substrate protein remaining % ≤ 80%)

The remaining lines, values behind:

SMILES | inhibition at 0.5 µM [1] | inhibition at 2 µM [1] | GSPT1 substrate protein remaining % (GSPT1; [2]) | IKZF 1 substrate protein remaining % (IKZF1; [2]) | IKZF3 substrate protein remaining % (IKZF3; [2]) | IKZF2 substrate protein remaining % (IKZF2; [2]) | CK1α substrate protein remaining % (CK1α; [2]) | Wee1 substrate protein remaining % (WEE1; [2]) | GSPT1 substrate protein remaining % (GSPT1; [3]) | IKZF 1 substrate protein remaining % (IKZF1; [3]) | IKZF3 substrate protein remaining % (IKZF3; [3]) | IKZF2 substrate protein remaining % (IKZF2; [3]) | CK1α substrate protein remaining % (CK1α; [3]) | Wee1 substrate protein remaining % (WEE1; [3])
O=C1CCC(N2Cc3c(CN4CCN(c5cccc(F)n5)CC4)cccc3C2=S)C(=O)N1 (stereo not drawn) [GT-08698, 3-(4-((4-(6-fluoropyridin-2-yl)piperazin-1-yl)methyl)-1-thioxoisoindolin-2-yl)piperidine-2,6-dione] | 60 to 80% | 80 to 100% | A (0% ≤ substrate protein remaining % ≤ 80%) | B (80%< substrate protein remaining %≤ 100%) | B (80%< substrate protein remaining %≤ 100%) | B (80%< substrate protein remaining %≤ 100%) | B (80%< substrate protein remaining %≤ 100%) | A (0% ≤ substrate protein remaining % ≤ 80%) | – | – | – | – | – | –
O=C1CCC(N2Cc3c(CN4CCN(c5ccccc5Cl)CC4)cccc3C2=S)C(=O)N1 (stereo not drawn) [GT-08265, 3-(4-((4-(2-chlorophenyl)piperazin-1-yl)methyl)-1-thioxoisoindolin-2-yl)piperidine-2,6-dione] | 40 to 53% | 53 to 60% | A (0% ≤ substrate protein remaining % ≤ 80%) | B (80%< substrate protein remaining %≤ 100%) | B (80%< substrate protein remaining %≤ 100%) | B (80%< substrate protein remaining %≤ 100%) | B (80%< substrate protein remaining %≤ 100%) | A (0% ≤ substrate protein remaining % ≤ 80%) | – | – | – | – | – | –
O=C1CCC(N2Cc3cc(CN4CCN(c5nc(Cl)nc6c5SCC6)CC4)ccc3C2=S)C(=O)N1 (stereo not drawn) [GT-09328, 3-(5-((4-(2-chloro-6,7-dihydrothieno[3,2-d]pyrimidin-4-yl)piperazin-1-yl)methyl)-1-thioxoisoindolin-2-yl)piperidine-2,6-dione] | 53 to 60% | 80 to 100% | – | – | – | – | – | – | B (80%< substrate protein remaining %≤ 100%) | B (80%< substrate protein remaining %≤ 100%) | B (80%< substrate protein remaining %≤ 100%) | A (0% ≤ substrate protein remaining % ≤ 80%) | B (80%< substrate protein remaining %≤ 100%) | B (80%< substrate protein remaining %≤ 100%)
O=C1CCC(N2Cc3c(CN4CCN(c5ccc(Br)cc5)CC4)cccc3C2=S)C(=O)N1 (stereo not drawn) [GT-08496, 3-(4-((4-(4-bromophenyl)piperazin-1-yl)methyl)-1-thioxoisoindolin-2-yl)piperidine-2,6-dione] | 40 to 53% | 80 to 100% | A (0% ≤ substrate protein remaining % ≤ 80%) | A (0% ≤ substrate protein remaining % ≤ 80%) | B (80%< substrate protein remaining %≤ 100%) | A (0% ≤ substrate protein remaining % ≤ 80%) | B (80%< substrate protein remaining %≤ 100%) | A (0% ≤ substrate protein remaining % ≤ 80%) | – | – | – | – | – | –
Cc1cscc1N1CCN(Cc2cccc3c2CN(C2CCC(=O)NC2=O)C3=S)CC1 (stereo not drawn) [GT-08306, 3-(4-((4-(4-methylthiophen-3-yl)piperazin-1-yl)methyl)-1-thioxoisoindolin-2-yl)piperidine-2,6-dione] | 53 to 60% | 80 to 100% | – | – | – | – | – | – | B (80%< substrate protein remaining %≤ 100%) | B (80%< substrate protein remaining %≤ 100%) | B (80%< substrate protein remaining %≤ 100%) | B (80%< substrate protein remaining %≤ 100%) | B (80%< substrate protein remaining %≤ 100%) | A (0% ≤ substrate protein remaining % ≤ 80%)
O=C1CCC(N2Cc3c(CN4CCN(c5noc6cc(F)ccc56)CC4)cccc3C2=S)C(=O)N1 (stereo not drawn) [GT-08818, 3-(4-((4-(6-fluorobenzo[d]isoxazol-3-yl)piperazin-1-yl)methyl)-1-thioxoisoindolin-2-yl)piperidine-2,6-dione] | 53 to 60% | 60 to 80% | A (0% ≤ substrate protein remaining % ≤ 80%) | B (80%< substrate protein remaining %≤ 100%) | B (80%< substrate protein remaining %≤ 100%) | B (80%< substrate protein remaining %≤ 100%) | B (80%< substrate protein remaining %≤ 100%) | A (0% ≤ substrate protein remaining % ≤ 80%) | – | – | – | – | – | –
O=C1CCC(N2Cc3cc(CN4CCN(c5ncccc5C(F)(F)F)CC4)ccc3C2=S)C(=O)N1 (stereo not drawn) [GT-09223, 3-(1-thioxo-5-((4-(3-(trifluoromethyl)pyridin-2-yl)piperazin-1-yl)methyl)isoindolin-2-yl)piperidine-2,6-dione] | 60 to 80% | 80 to 100% | B (80%< substrate protein remaining %≤ 100%) | B (80%< substrate protein remaining %≤ 100%) | B (80%< substrate protein remaining %≤ 100%) | B (80%< substrate protein remaining %≤ 100%) | A (0% ≤ substrate protein remaining % ≤ 80%) | A (0% ≤ substrate protein remaining % ≤ 80%) | – | – | – | – | – | –
O=C1CCC(N2Cc3c(CN4CCN(c5ccnc(Br)c5F)CC4)cccc3C2=S)C(=O)N1 (stereo not drawn) [GT-08733, 3-(4-((4-(2-bromo-3-fluoropyridin-4-yl)piperazin-1-yl)methyl)-1-thioxoisoindolin-2-yl)piperidine-2,6-dione] | 60 to 80% | 80 to 100% | A (0% ≤ substrate protein remaining % ≤ 80%) | B (80%< substrate protein remaining %≤ 100%) | B (80%< substrate protein remaining %≤ 100%) | B (80%< substrate protein remaining %≤ 100%) | B (80%< substrate protein remaining %≤ 100%) | A (0% ≤ substrate protein remaining % ≤ 80%) | – | – | – | – | – | –
